Test results reported in PubChem BioAssay (NCI).
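The compound was tested at five concentrations on cells cultured in 96-well plates, with a 48-hour exposure period. Here, GI50 denotes the concentration required for 50% inhibition of growth. Definition used: TGI = concentration required for complete inhibition of growth.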

Each molecule was assayed on PC-3 prostate (assay: inhibition of tumour cell growth, NCI panel, 48 h).
In the case of `CCOC(=O)c1csc(NC(=O)CN2CCCC2)n1`, the TGI is reported as over 100 µM.
In the case of `O=C1OC(c2ccccc2)=N/C1=C\c1ccc([N+](=O)[O-])cc1`, the TGI is reported as over 100 µM.
With `CO[C@](C(=O)OC[C@H]1[C@@H](COC(C)=O)[C@@H]2O[C@H]1c1cc3c(cc12)OCO3)(c1ccccc1)C(F)(F)F` the TGI was over 100 µM.
Molecule `O=C(O)Cc1ccc([N+](=O)[O-])cc1[N+](=O)[O-]` has a TGI of over 100 µM.
`COc1cc(/C=C2\CN(S(=O)(=O)c3ccc(C)cc3)C/C(=C\c3cc(CN4CCCC4)c(O)c(OC)c3)C2=O)cc(CN2CCCC2)c1O` was tested, and the GI50 was 1.56 µM and the TGI was 3.67 µM.
`CCCCCCOc1ccc(/C=N/Nc2cc(C)nc3ccc(Cl)cc23)cc1` gave a GI50 of 1.57 µM and a TGI of 3.21 µM.

What follows are molecules tested on SK-MEL-28 melanoma (assay: inhibition of tumour cell growth, NCI panel, 48 h).
`O=C(CC1Sc2ccccc2NC1=O)Nc1ccccc1[N+](=O)[O-]` (centres undefined) showed a TGI of over 100 µM.
In the case of `CCOC(=O)c1csc(NC(=O)CN2CCCC2)n1`, the TGI is reported as over 100 µM.
`CCn1cnc2c(=S)nc(N)[nH]c21` showed a TGI of over 100 µM.
`CC1NC(=O)C(C)C(c2ccccc2)N(N=O)C1c1ccccc1` (centres undefined) gave a TGI of over 100 µM.
For `O=C1OC(c2ccccc2)=N/C1=C\c1ccc([N+](=O)[O-])cc1`, the TGI was over 100 µM.
`CO[C@](C(=O)OC[C@H]1[C@@H](COC(C)=O)[C@@H]2O[C@H]1c1cc3c(cc12)OCO3)(c1ccccc1)C(F)(F)F` gave a TGI of over 100 µM.
Work on `O=C(O)Cc1ccc([N+](=O)[O-])cc1[N+](=O)[O-]` yielded a TGI of over 100 µM.
Work on `CON(C)C(=O)C(Cc1ccccc1)NC(=O)OCc1ccccc1` (centres undefined) yielded a TGI of over 100 µM.
For `COc1cc(/C=C2\CN(S(=O)(=O)c3ccc(C)cc3)C/C(=C\c3cc(CN4CCCC4)c(O)c(OC)c3)C2=O)cc(CN2CCCC2)c1O`, the GI50 was 1.92 µM and the TGI was 3.51 µM.
`Cc1ccc(C(=O)OC(C(=O)O)C(OC(=O)c2ccc(C)cc2)C(=O)O)cc1` (centres undefined) (tested in a mixture with another compound) gave a TGI of 19.7 µM.
In the case of `CCCCCCOc1ccc(/C=N/Nc2cc(C)nc3ccc(Cl)cc23)cc1`, the GI50 is reported as 1.76 µM and the TGI is reported as 3.18 µM.

These molecules were tested on SK-MEL-5 melanoma (assay: inhibition of tumour cell growth, NCI panel, 48 h).
For `O=C(CC1Sc2ccccc2NC1=O)Nc1ccccc1[N+](=O)[O-]` (centres undefined), the TGI was over 100 µM.
Work on `CCOC(=O)c1csc(NC(=O)CN2CCCC2)n1` yielded a TGI of over 100 µM.
Work on `CC1NC(=O)C(C)C(c2ccccc2)N(N=O)C1c1ccccc1` (centres undefined) yielded a TGI of over 100 µM.
With `O=C1OC(c2ccccc2)=N/C1=C\c1ccc([N+](=O)[O-])cc1` the TGI was over 100 µM.
Work on `CO[C@](C(=O)OC[C@H]1[C@@H](COC(C)=O)[C@@H]2O[C@H]1c1cc3c(cc12)OCO3)(c1ccccc1)C(F)(F)F` yielded a TGI of over 100 µM.
In the case of `O=C(O)Cc1ccc([N+](=O)[O-])cc1[N+](=O)[O-]`, the TGI is reported as over 100 µM.
Molecule `CON(C)C(=O)C(Cc1ccccc1)NC(=O)OCc1ccccc1` (centres undefined) has a TGI of over 100 µM.
In the case of `COc1cc(/C=C2\CN(S(=O)(=O)c3ccc(C)cc3)C/C(=C\c3cc(CN4CCCC4)c(O)c(OC)c3)C2=O)cc(CN2CCCC2)c1O`, the GI50 is reported as 1.61 µM and the TGI is reported as 2.97 µM.
`Cc1ccc(C(=O)OC(C(=O)O)C(OC(=O)c2ccc(C)cc2)C(=O)O)cc1` (centres undefined) (tested in a mixture with another compound) was tested, and the TGI was 7.72 µM.
`CCCCCCOc1ccc(/C=N/Nc2cc(C)nc3ccc(Cl)cc23)cc1` showed a GI50 of 1.69 µM and a TGI of 3.06 µM.

Each molecule was assayed on SNB-19 CNS (assay: inhibition of tumour cell growth, NCI panel, 48 h).
For `O=C(CC1Sc2ccccc2NC1=O)Nc1ccccc1[N+](=O)[O-]` (centres undefined), the TGI was over 100 µM.
Work on `CCOC(=O)c1csc(NC(=O)CN2CCCC2)n1` yielded a TGI of over 100 µM.
Work on `CCn1cnc2c(=S)nc(N)[nH]c21` yielded a TGI of over 100 µM.
`CC1NC(=O)C(C)C(c2ccccc2)N(N=O)C1c1ccccc1` (centres undefined) gave a TGI of over 100 µM.
In the case of `O=C1OC(c2ccccc2)=N/C1=C\c1ccc([N+](=O)[O-])cc1`, the TGI is reported as over 100 µM.
For `CO[C@](C(=O)OC[C@H]1[C@@H](COC(C)=O)[C@@H]2O[C@H]1c1cc3c(cc12)OCO3)(c1ccccc1)C(F)(F)F`, the TGI was over 100 µM.
`O=C(O)Cc1ccc([N+](=O)[O-])cc1[N+](=O)[O-]` gave a TGI of over 100 µM.
Work on `CON(C)C(=O)C(Cc1ccccc1)NC(=O)OCc1ccccc1` (centres undefined) yielded a TGI of over 100 µM.
`Cc1ccc(C(=O)OC(C(=O)O)C(OC(=O)c2ccc(C)cc2)C(=O)O)cc1` (centres undefined) (tested in a mixture with another compound) was tested, and the TGI was 25.6 µM.
For `CCCCCCOc1ccc(/C=N/Nc2cc(C)nc3ccc(Cl)cc23)cc1`, the GI50 was 1.88 µM and the TGI was 3.39 µM.

These molecules were tested on SR leukemia (assay: inhibition of tumour cell growth, NCI panel, 48 h).
In the case of `O=C(CC1Sc2ccccc2NC1=O)Nc1ccccc1[N+](=O)[O-]` (centres undefined), the TGI is reported as over 100 µM.
Work on `CCOC(=O)c1csc(NC(=O)CN2CCCC2)n1` yielded a TGI of over 100 µM.
`CCn1cnc2c(=S)nc(N)[nH]c21` gave a TGI of over 100 µM.
Work on `O=C1OC(c2ccccc2)=N/C1=C\c1ccc([N+](=O)[O-])cc1` yielded a TGI of 79.6 µM.
`CO[C@](C(=O)OC[C@H]1[C@@H](COC(C)=O)[C@@H]2O[C@H]1c1cc3c(cc12)OCO3)(c1ccccc1)C(F)(F)F` was tested, and the TGI was over 100 µM.
Work on `CON(C)C(=O)C(Cc1ccccc1)NC(=O)OCc1ccccc1` (centres undefined) yielded a TGI of over 100 µM.
`COc1cc(/C=C2\CN(S(=O)(=O)c3ccc(C)cc3)C/C(=C\c3cc(CN4CCCC4)c(O)c(OC)c3)C2=O)cc(CN2CCCC2)c1O` gave a GI50 of 0.412 µM and a TGI of 3.45 µM.
`CCCCCCOc1ccc(/C=N/Nc2cc(C)nc3ccc(Cl)cc23)cc1` was tested, and the GI50 was 0.336 µM and the TGI was 1.6 µM.
